These results are taken from PubChem BioAssay AID1508591.

For the data set the following is noted: rat; liver microsomes; pH 7.4; 15.0 min; 1.0 µM. For orientation: Microsomes from liver hold many membrane-bound enzymes, among them those of drug oxidation.
Regarding `Cc1nn2c(c1-c1ccccc1-c1ccccc1)N(Cc1ccc(C(=O)O)s1)CCC2`, the half-life worked out at 7.81 min. `Cc1ccc(-c2cc(C(=O)NCc3cnn(C)c3)c3cc(Br)ccc3n2)cc1` had a half-life of more than 30 min. To `CN(C)c1cccc(-c2ncnc(N3CCC(C(N)=O)CC3)n2)c1` belongs 5.7 min; to `CC1=C[C@@H](CNC(C)C)[C@H](C(C)C)C[C@H]1Cc1nnc(-c2ccncc2)o1`, 4.76 min; to `COC(=O)Nc1nc2ccc(Sc3ccccc3)cc2[nH]1`, 18.4 min. The result for `Cc1cccc(-n2cnc3cc(C(=O)N4CCC(Br)CC4)ccc32)c1` reads 2.5 min; that for `NS(=O)(=O)c1ccc(NC(=O)c2cc3ncccn3n2)cc1`, more than 30 min. The result for `CC1CCN(S(=O)(=O)c2ccc3c(c2)C(C)(C)C(=O)N3CC(=O)NCc2ccco2)CC1` reads 1.8 min; that for `COc1cccc(CNc2ccc(S(=O)(=O)Nc3ccc(N4CCNCC4)cc3)cc2)c1O`, more than 30 min; that for `COc1ccccc1Nc1ccnc(N2CCN(C(=O)c3ccc(F)cc3)CC2)n1`, 11.2 min. In the case of `Cc1nc(Sc2nnnn2C)c2c(-c3ccccc3)csc2n1`, the half-life stood at 1.6 min. To `COc1cccc(-n2ncc3c2CCCC3NC(=O)c2ccccn2)c1` (configuration not stated) belongs 11 min; to `O=[S+]([O-])(Nc1ccccc1)c1ccc(NCc2ccc(Cl)cc2O)cc1`, 1.8 min; to `COc1ccc(C2=Nn3c([n+](C)c4ccccc43)SC2)cc1`, more than 30 min. Consider `CCOc1ccc(CCNC(=O)c2cc3cnccc3n2Cc2cccc(C)c2)cc1OCC`, for which the half-life was found to be 6.9 min. Consider `Cc1cc(-c2nnc3n2CCCCC3)c(C)n1-c1ccc([N+](=O)[O-])cc1`, for which the half-life stood at 2.5 min. In turn, `CC(=O)c1c(C)[nH]c(C(=O)Nc2cccc([S+](=O)([O-])Nc3ccncc3)c2)c1C` had a half-life of more than 30 min.

The molecule `O=C(O)c1cn(C2CC2)c2cc(N3C[C@@H]4C[C@H]3CN4)c(F)cc2c1=O` showed a half-life of more than 30 min.

`COc1ccc(CNC(=O)c2cnc3ccccc3n2)cc1` returned a half-life of 9.3 min. `C#CCOc1ccc(-c2nnc(Nc3ccc(NC(C)=O)cc3)c3ccccc23)cc1` gave a half-life of more than 30 min. In turn, `CNC(=O)C1=C(C)NC(Nc2nc3ccccc3o2)=NC1c1[nH]ncc1Cl` (configuration not stated) returned a half-life of 5.7 min.

`CCC(CC)c1cc([C@H]2CN3CC[C@H]2C[C@@H]3CNC(=O)Cc2cccs2)nc(-c2ccncc2)n1` had a half-life of 2.78 min. The molecule `CCCN(CCC)CCc1cccc2c1CC(=O)N2` registered a half-life of 2.96 min. Take `Fc1cc(Nc2nc(-c3ccncc3)nc3ccccc23)ccc1N1CCCC1`: the half-life is 5.8 min. Molecule `Cc1nc2ccc(Nc3nc(-c4ccncc4)nc4ccccc34)cc2s1` showed a half-life of 10 min.

`CC(C)(C)c1ccc(-c2nc(SCCCOc3ccccc3)n3[nH]c(=O)cc3n2)cc1` yielded a half-life of more than 30 min. The molecule `Cc1cc(-c2nnc3n2CCCCC3)c(C)n1-c1cccc2ccccc12` came in with a half-life of 2.1 min.

`NC(=O)C1CCN(c2nc(-c3cccc4sc5ccccc5c34)cs2)CC1` registered a half-life of more than 30 min. In the case of `Cn1nnnc1Sc1ncnc2scc(-c3cccc(S(C)(=O)=O)c3)c12`, the half-life was more than 30 min. `NC(=O)C1CCN(c2nc(-c3ccccc3[N+](=O)[O-])cs2)CC1` returned a half-life of 3.9 min. To `Cc1cccc(-n2ccc(=O)c(C(=O)Nc3ccc(S(=O)(=O)Nc4nccs4)cc3)n2)c1` belongs more than 30 min; to `Oc1ccc2[nH]cc(CCCCN3CC=C(c4ccccc4)CC3)c2c1`, more than 30 min; to `CCc1cccc(NC(=O)C(Cc2ccccc2)NS(=O)(=O)c2cccs2)c1` (configuration not stated), 1.44 min. The result for `O=C(Nc1ccc(S(=O)(=O)Nc2nccs2)cc1)c1cccnc1` reads more than 30 min; that for `COc1ccc(NS(=O)(=O)c2ccc(C)c(C(=O)Nc3ccc4oc(C)nc4c3)c2)cc1`, 4.3 min; that for `COc1cc(-c2cc3c(nc2-c2ccccc2)nc(C(=O)NC2CCN(C)CC2)n3C)ccn1`, more than 30 min.

As for `Brc1ccc(-c2csc(N3CCOCC3)n2)cc1`, the half-life is 2.48 min. On to `Cc1ccc(S(=O)(=O)Nc2cc(C)ccc2C(=O)Nc2nc(-c3ccccc3)cs2)cc1`, for which the half-life is 2.5 min. Turning to `O=S(=O)(Nc1nc2ccccc2s1)c1ccc(NCc2ccc(Br)cc2O)cc1`, the half-life was more than 30 min.

In the case of `Fc1ccccc1Nc1nc(-c2ccncc2)nc2ccccc12`, the half-life worked out at 7.9 min. As to `O=C(NCCO)c1cccc(-c2cc(Nc3ccc(OC(F)(F)F)cc3)ncn2)c1`, the half-life was more than 30 min. In turn, `Cc1cc(C)c(CNC(=O)c2nc(-c3cccc(CO)c3)cc3c2ccn3C)c(=O)[nH]1` yielded a half-life of 8.11 min. As to `COc1cc(-c2nc(-c3c(C)noc3C)cc3c2cc(C)n3CCN(C)C)ccn1`, the half-life is 19.7 min.

In turn, `O=c1c2c([nH]c3ccc(Br)cc13)CCCC2` had a half-life of 15.9 min. The molecule `Cc1nc2ccc(NC(=O)c3cc(S(=O)(=O)N(C)c4ccccc4)ccc3Cl)cc2s1` had a half-life of 1.55 min.

`CNC(=O)c1ccc(-c2cnc3cnc(C(=O)N(C)c4ccc(Cl)cc4)cn23)cc1`: the half-life is more than 30 min. For the molecule `COc1ccc(Cl)cc1C(=O)Nc1ccc(NC(=O)c2ccco2)cc1`, the half-life was more than 30 min.

Regarding `NC(=O)C1CCN(c2nccc(Cl)n2)CC1`, the half-life is more than 30 min. Regarding `O=C1CCc2cc(S(=O)(=O)Nc3ccc(F)c(Cl)c3)c(F)cc2N1`, the half-life was found to be 16.8 min. In turn, `CC(Cc1ccc(O)cc1)NCC(O)c1cc(O)cc(O)c1` (configuration not stated) displayed a half-life of more than 30 min. As to `c1ccc2c(NC3CCCCC3)nc(-c3ccncc3)nc2c1`, the half-life stood at 10 min. `CC1=C(C(=O)Nc2ccc(Cl)cc2)C(c2ccccc2C)n2ncc(C(=O)Nc3ccc(C)cc3)c2N1` (configuration not stated) yielded a half-life of 9.84 min. In turn, `Cn1cnc(-c2nccc3c(=O)[nH]c(OCCCC(F)(F)F)nc23)c1` gave a half-life of 16.5 min. With `c1ccc2c(N3CCOCC3)nc(-c3ccncc3)nc2c1`, the half-life amounted to 10 min.

Regarding `CN(C)c1cccc(-c2cnc(N3CCC(C(N)=O)CC3)nc2)c1`, the half-life was determined as 16.8 min.

`Cc1ccc(S(=O)(=O)Nc2cc(Cl)c(Cl)cc2C(=O)Nc2nc(-c3ccccc3)cs2)cc1` returned a half-life of 13 min. On to `COc1c(O)ccc2c1CN1CCc3cc4c(cc3[C@@H]1C2)OCO4`, for which the half-life is 18.9 min. On to `COc1ccc(-c2cc(-c3cccc4[nH]ncc34)cn3cncc23)cn1`, for which the half-life was 9.28 min.

As for `NC(=O)C1CCN(c2nc(-c3ccc(OC(F)(F)F)cc3)cs2)CC1`, the half-life came out at 7.66 min. For `CC(C(O)c1ccc(O)cc1)N1CCC(Cc2ccccc2)CC1` (configuration not stated), the half-life was 2.55 min. `O=C1CCCC2=C1C(c1[nH]ncc1Cl)N=C(Nc1nc3c(Br)cccc3o1)N2` (configuration not stated): the half-life turned out to be 3.2 min. The molecule `Cc1cc(C)c(CNC(=O)c2nc(-c3ccc(F)cc3)cc3c2ccn3C(C)C)c(=O)[nH]1` showed a half-life of 7.89 min. Turning to `COc1ccc(OC)c(C(=O)Nc2nc(-c3ccccc3)cs2)c1`, the half-life was determined as 20 min.

Turning to `Cc1ccccc1C(=O)Nc1ccc2c(c1)CCCN2C(=O)c1cccs1`, the half-life was found to be 7.79 min. In turn, `O=S(=O)(Nc1nccs1)c1ccc(NCc2ccc(Cl)cc2O)cc1` gave a half-life of 7.5 min. With `COc1ccc(S(=O)(=O)N2CCOCC2)cc1NC(=O)c1cccc(-n2cccc2)c1`, the half-life came out at 3.37 min. The result for `COc1ccc(CCNC(=O)c2cc3c(=O)n4ccccc4nc3n(CCCN3CCOCC3)c2=N)cc1` reads 8.26 min.

The half-life is the time needed for the level to fall by half in the phase considered. Higher therefore signals slow loss.
